Patent US20230416227A1, “PLASMA KALLIKREIN INHIBITORS” (Merck Sharp & Dohme LLC, priority 2020, published 2023)
pIC50: −log10 of the molar value.

What was measured:
Human plasma kallikrein = biological target: T1, Human plasma kallikrein (Homo sapiens, UniProt P03952); assay: Plasma Kallikrein Assay; type: biochemical; conditions: purified Human plasma kallikrein 0.5 nM, substrate Acetyl-K-P-R-AFC, pH 7.4
T1 construct: yields a heavy chain (371 amino acids) and a light chain (248 amino acids); purchased Enzyme Research Laboratories

human factor XIa = human factor XIa (Homo sapiens, UniProt P03951); assay: Factor XIa Assay; type: biochemical; conditions: human factor XIa 0.04 nM, substrate GPR-AFC, 30 min pre-incubation at 25° C., pH 7.4; read-out: FXIa IC50
human factor XIa, sequence (P03951 388-625 limits assumed): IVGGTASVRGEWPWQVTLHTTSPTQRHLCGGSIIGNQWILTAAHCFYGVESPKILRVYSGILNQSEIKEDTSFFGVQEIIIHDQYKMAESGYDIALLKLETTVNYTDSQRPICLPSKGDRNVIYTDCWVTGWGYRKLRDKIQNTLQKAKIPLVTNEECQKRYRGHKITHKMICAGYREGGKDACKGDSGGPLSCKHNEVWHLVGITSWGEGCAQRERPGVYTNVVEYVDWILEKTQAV
human factor XIa, sequence (P03951 19-387 partner limits assumed): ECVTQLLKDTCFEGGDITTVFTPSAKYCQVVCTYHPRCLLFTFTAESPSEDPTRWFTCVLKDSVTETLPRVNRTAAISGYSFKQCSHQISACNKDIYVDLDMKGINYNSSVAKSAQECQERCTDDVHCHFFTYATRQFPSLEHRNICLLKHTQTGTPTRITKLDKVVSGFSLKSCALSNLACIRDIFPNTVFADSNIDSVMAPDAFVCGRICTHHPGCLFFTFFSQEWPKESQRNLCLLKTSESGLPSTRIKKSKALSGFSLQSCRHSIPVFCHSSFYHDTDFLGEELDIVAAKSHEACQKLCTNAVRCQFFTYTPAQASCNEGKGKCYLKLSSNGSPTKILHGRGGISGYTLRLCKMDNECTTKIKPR

T1 sequence (P03952 391-638 limits assumed): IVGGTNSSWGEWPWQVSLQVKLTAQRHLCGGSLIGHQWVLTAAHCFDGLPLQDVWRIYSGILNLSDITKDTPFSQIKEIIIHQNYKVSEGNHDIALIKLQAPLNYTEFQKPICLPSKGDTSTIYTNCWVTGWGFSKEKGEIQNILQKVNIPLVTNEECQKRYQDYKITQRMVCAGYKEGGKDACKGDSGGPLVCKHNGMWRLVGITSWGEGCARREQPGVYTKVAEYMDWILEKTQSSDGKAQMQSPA
T1 sequence (P03952 20-390 partner limits assumed): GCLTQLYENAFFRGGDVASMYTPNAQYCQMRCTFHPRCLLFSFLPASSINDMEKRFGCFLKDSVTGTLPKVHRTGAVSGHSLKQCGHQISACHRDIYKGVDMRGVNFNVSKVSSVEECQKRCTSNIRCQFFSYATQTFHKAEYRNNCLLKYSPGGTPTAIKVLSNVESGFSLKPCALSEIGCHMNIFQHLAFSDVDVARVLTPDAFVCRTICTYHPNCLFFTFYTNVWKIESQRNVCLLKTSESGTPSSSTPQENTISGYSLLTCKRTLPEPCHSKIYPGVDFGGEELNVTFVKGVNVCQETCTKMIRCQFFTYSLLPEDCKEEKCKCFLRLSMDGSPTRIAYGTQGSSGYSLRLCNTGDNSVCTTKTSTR

Row | Compound | pIC50 (Human plasma kallikrein) | pIC50 (human factor XIa)
1 | O=C(Nc1cnn(Cc2cnc(N3CC4CC4C3)nc2)c1)c1cncc(-c2c(C(F)F)ccc(Cl)c2F)n1 (centres unmarked) [Example 80, N-(1-((2-(3-Azabicyclo[3.1.0]hexan-3-yl)pyrimidin-5-yl)methyl)-1H-pyrazol-4-yl)-6-(3-chloro-6-(difluoromethyl)-2-fluorophenyl)pyrazine-2-carboxamide] | 8.17 | 5.70
2 | C[C@@H](c1cnc(N2C[C@@H]3C[C@@H]3[C@@H]2CO)nc1)n1cc(NC(=O)c2cncc(-c3c(C(F)F)ccc(Cl)c3F)n2)cn1 (single isomer, unassigned) [Example 74, 6-(3-Chloro-6-(difluoromethyl)-2-fluorophenyl)-N-(1-((S or R)-1-(2-((1S,2R,5R or 1R,2S,5S)-2-(hydroxymethyl)-3-azabicyclo[3.1.0]hexan-3-yl)pyrimidin-5-yl)ethyl)-1H-pyrazol-4-yl)pyrazine-2-carboxamide] | 8.37 | 5.99
3 | O=C(Nc1cnn(C2CCc3cc(N4CCC4)ncc32)c1)c1cncc(-c2c(C(F)F)ccc(Cl)c2F)n1 (single isomer, unassigned) [Example 119, (R or S)-N-(1-(3-(Azetidin-1-yl)-6,7-dihydro-5H-cyclopenta[c]pyridin-7-yl)-1H-pyrazol-4-yl)-6-(3-chloro-6-(difluoromethyl)-2-fluorophenyl)pyrazine-2-carboxamide] | 7.84 | 5.45
4 | O=C(Nc1cnn(Cc2cnc(N3C[C@H]4C[C@H]4[C@H]3CO)nc2)c1)c1cncc(-c2c(C(F)F)ccc(Cl)c2F)n1 [Example 73, 6-(3-Chloro-6-(difluoromethyl)-2-fluorophenyl)-N-(1-((2-((1R,2S,5S)-2-(hydroxymethyl)-3-azabicyclo[3.1.0]hexan-3-yl)pyrimidin-5-yl)methyl)-1H-pyrazol-4-yl)pyrazine-2-carboxamide] | 8.43 | 5.83
5 | CC(c1cnc(N2CCC2)nc1)n1cc(NC(=O)c2cncc(-c3c(OC(F)F)ccc(Cl)c3F)n2)cn1 (single isomer, unassigned) [Example 56, (R or S)-N-(1-(1-(2-(Azetidin-1-yl)pyrimidin-5-yl)ethyl)-1H-pyrazol-4-yl)-6-(3-chloro-6-(difluoromethoxy)-2-fluorophenyl)pyrazine-2-carboxamide] | 7.56 | 5.83
6 | CC1(O)CN(C[C@@H]2CCCN2c2ncc(Cn3cc(NC(=O)c4cncc(-c5c(C(F)F)ccc(Cl)c5F)n4)cn3)cn2)C1 [Example 152, (S)-6-(3-Chloro-6-(difluoromethyl)-2-fluorophenyl)-N-(1-((2-(2-((3-hydroxy-3-methylazetidin-1-yl)methyl)pyrrolidin-1-yl)pyrimidin-5-yl)methyl)-1H-pyrazol-4-yl)pyrazine-2-carboxamide] | 9.00 | 5.22
7 | O=C(Nc1cnn(Cc2cnc(N3CCCC3CCO)nc2)c1)c1cncc(-c2c(C(F)F)ccc(Cl)c2F)n1 (single isomer, unassigned) [Example 105, (S or R)-6-(3-Chloro-6-(difluoromethyl)-2-fluorophenyl)-N-(1-((2-(2-(2-hydroxyethyl)pyrrolidin-1-yl)pyrimidin-5-yl)methyl)-1H-pyrazol-4-yl)pyrazine-2-carboxamide] | 7.43 | 5.47
8 | Cc1ncc(-c2c(C(F)F)ccc(Cl)c2F)nc1C(=O)Nc1cnn(C(CO)c2cnc(N3CCC3)nc2)c1 (single isomer, unassigned) [Example 47, (R or S)-N-(1-(1-(2-(Azetidin-1-yl)pyrimidin-5-yl)-2-hydroxyethyl)-1H-pyrazol-4-yl)-6-(3-chloro-6-(difluoromethyl)-2-fluorophenyl)-3-methylpyrazine-2-carboxamide] | 7.97 | 6.49
9 | O=C(Nc1cnn(C2(c3cnc(N4CCC4)nc3)CC2)c1)c1cncc(-c2c(C(F)F)ccc(Cl)c2F)n1 [Example 21, N-(1-(1-(2-(Azetidin-1-yl)pyrimidin-5-yl)cyclopropyl)-1H-pyrazol-4-yl)-6-(3-chloro-6-(difluoromethyl)-2-fluorophenyl)pyrazine-2-carboxamide] | 7.77 | 6.01
10 | Cc1nc(N2CCC2)ccc1Cn1cc(NC(=O)c2cncc(-c3c(C(F)F)ccc(Cl)c3F)n2)cn1 [Example 9, N-(1-((6-(Azetidin-1-yl)-2-methylpyridin-3-yl)methyl)-1H-pyrazol-4-yl)-6-(3-chloro-6-(difluoromethyl)-2-fluorophenyl)pyrazine-2-carboxamide] | 8.28 | 5.29
11 | CC(c1cnc(N2CC[C@H]2CN2C[C@@H](O)[C@@H](O)C2)nc1)n1cc(NC(=O)c2cncc(-c3c(C(F)F)ccc(Cl)c3F)n2)cn1 (stereo partly drawn) [Example 167, 6-(3-Chloro-6-(difluoromethyl)-2-fluorophenyl)-N-(1-(1-(2-((S)-2-(((3R,4S)-3,4-dihydroxypyrrolidin-1-yl)methyl)azetidin-1-yl)pyrimidin-5-yl)ethyl)-1H-pyrazol-4-yl)pyrazine-2-carboxamide] | 9.00 | 5.23
12 | Cc1ncc(-c2c(C(F)F)ccc(Cl)c2F)nc1C(=O)Nc1cnn(C(C)c2cnc(N3CCC3)nc2)c1 (single isomer, unassigned) [Example 28, (R or S)-N-(1-(1-(2-(azetidin-1-yl)pyrimidin-5-yl)ethyl)-1H-pyrazol-4-yl)-6-(3-chloro-6-(difluoromethyl)-2-fluorophenyl)-3-methylpyrazine-2-carboxamide] | 7.92 | 6.03
13 | CC(c1cnc(N2CCC2)nc1)n1cc(NC(=O)c2cncc(-c3c(Br)ccc(Cl)c3F)n2)cn1 (centres unmarked) [Example 62, N-(1-(1-(2-(Azetidin-1-yl)pyrimidin-5-yl)ethyl)-1H-pyrazol-4-yl)-6-(6-bromo-3-chloro-2-fluorophenyl)pyrazine-2-carboxamide] | 7.75 | 5.67
14 | Cc1ncc(-c2c(C(F)F)ccc(Cl)c2F)nc1C(=O)Nc1cnn(C(C)c2cnc(N3CCC3)nc2)c1 (single isomer, unassigned) [Example 27, (S or R)-N-(1-(1-(2-(azetidin-1-yl)pyrimidin-5-yl)ethyl)-1H-pyrazol-4-yl)-6-(3-chloro-6-(difluoromethyl)-2-fluorophenyl)-3-methylpyrazine-2-carboxamide] | 8.42 | 6.06
15 | CC(c1cnc(N2CCC2)nc1)n1cc(NC(=O)c2cncc(-c3cc(Cl)ccc3-n3cnnn3)n2)cn1 (single isomer, unassigned) [Example 58, (S or R)-N-(1-(1-(2-(Azetidin-1-yl)pyrimidin-5-yl)ethyl)-1H-pyrazol-4-yl)-6-(5-chloro-2-(1H-tetrazol-1-yl)phenyl)pyrazine-2-carboxamide] | 8.09 | 6.38
16 | CC(c1cnc(N2CC3CC3C2)nc1)n1cc(NC(=O)c2cncc(-c3c(C(F)F)ccc(Cl)c3F)n2)cn1 (single isomer, unassigned) [Example 31, N-(1-((1S or 1R)-1-(2-(3-azabicyclo[3.1.0]hexan-3-yl)pyrimidin-5-yl)ethyl)-1H-pyrazol-4-yl)-6-(3-chloro-6-(difluoromethyl)-2-fluorophenyl)pyrazine-2-carboxamide] | 7.57 | 5.57
17 | O=C(Nc1cnn(C(c2cnc(N3CCC3)nc2)C(F)F)c1)c1cncc(-c2c(C(F)F)ccc(Cl)c2F)n1 (single isomer, unassigned) [Example 36, (S or R)-N-(1-(1-(2-(azetidin-1-yl)pyrimidin-5-yl)-2,2-difluoroethyl)-1H-pyrazol-4-yl)-6-(3-chloro-6-(difluoromethyl)-2-fluorophenyl)pyrazine-2-carboxamide] | 7.35 | 5.35
18 | O=C(Nc1cnn(Cc2cnc(N3CCC[C@H]3CN3CC[C@@H](O)C3)nc2)c1)c1cncc(-c2c(C(F)F)ccc(Cl)c2F)n1 [Example 142, 6-(3-Chloro-6-(difluoromethyl)-2-fluorophenyl)-N-(1-((2-((S)-2-(((R)-3-hydroxypyrrolidin-1-yl)methyl)pyrrolidin-1-yl)pyrimidin-5-yl)methyl)-1H-pyrazol-4-yl)pyrazine-2-carboxamide] | 9.40 | 5.66
19 | O=C(Nc1cnn(Cc2cnc(N3CCC3)nc2C(F)F)c1)c1cncc(-c2c(C(F)F)ccc(Cl)c2F)n1 [Example 19, N-(1-((2-(Azetidin-1-yl)-4-(difluoromethyl)pyrimidin-5-yl)methyl)-1H-pyrazol-4-yl)-6-(3-chloro-6-(difluoromethyl)-2-fluorophenyl)pyrazine-2-carboxamide] | 7.84 | 5.33
20 | C[C@@H](c1cnc(N2C[C@@H]3C[C@@H]3[C@@H]2CO)nc1)n1cc(NC(=O)c2cncc(-c3c(C(F)F)ccc(Cl)c3F)n2)cn1 (single isomer, unassigned) [Example 71, 6-(3-Chloro-6-(difluoromethyl)-2-fluorophenyl)-N-(1-((S or R)-1-(2-((1S,2R,5R or 1R,2S,5S)-2-(hydroxymethyl)-3-azabicyclo[3.1.0]hexan-3-yl)pyrimidin-5-yl)ethyl)-1H-pyrazol-4-yl)pyrazine-2-carboxamide] | 8.60 | 5.65
21 | Cc1nc(Cn2cc(NC(=O)c3cncc(-c4c(C(F)F)ccc(Cl)c4F)n3)cn2)cnc1N1CCC1 [Example 10, N-(1-((5-(Azetidin-1-yl)-6-methylpyrazin-2-yl)methyl)-1H-pyrazol-4-yl)-6-(3-chloro-6-(difluoromethyl)-2-fluorophenyl)pyrazine-2-carboxamide] | 8.28 | 6.19
22 | CN(CC1CCCN1c1ncc(Cn2cc(NC(=O)c3cncc(-c4c(C(F)F)ccc(Cl)c4F)n3)cn2)cn1)CC1(O)CC1 (single isomer, unassigned) [Example 141, (R or S)-6-(3-Chloro-6-(difluoromethyl)-2-fluorophenyl)-N-(1-((2-(2-((((1-hydroxycyclopropyl)methyl)(methyl)amino)methyl)pyrrolidin-1-yl)pyrimidin-5-yl)methyl)-1H-pyrazol-4-yl)pyrazine-2-carboxamide] | 9.52 | 5.32
